Entries after “also recorded” stand apart in the source; their conditions may differ. Where a SMILES comes first, the peptide text is derived from it. Where no end group is shown, it is not given here. The star is where a group is joined. X1 = CCN(CC)c1ccc2c(-c3ccc(S(=O)(=O)*)cc3S(=O)(=O)[O-])c3ccc(=[N+](CC)CC)cc-3oc2c1; fluorescein = fluorescein label; rhodamine = not defined here

Data set [1] deals with HeLa cells. As to the kind of experiment: HPLC analysis of cytosolic extracts prepared with streptolysin O. The format is cell-based. Conditions: HeLa cells treated with rhodamine labeled molecule. The procedure: To generate cytosolic extracts, HeLa cells were treated with streptolysin O (SLO), a well characterized bacterial toxin that creates pores in the plasma membranes of target cells (Walev et al., 2002, FASEB 16:237-239). […] Moreover, when the toxin is added to cultured cells at 4° C. and washed with PBS before raising the temperature to 37° C., pores are created only in the plasma membrane and the release of ER, golgi, or endolysosomal contents are avoided (Androlewicz et al., 1993, Proc Natl Acad Sci USA 90:9130-9134).
First, selective release of the cytoplasmic contents of HeLa cells using the published procedures was verified. HeLa cells were treated with 20 μg/mL SLO in PBS containing 5 mM DTT (20 min, 4° C.), washed (three PBS washes, 150 μL each), resuspended in PBS, and incubated at 37° C. for 15 min, after which 1.5 μM propidium iodide (PI), a marker of permeabilized cell membranes, was added.

Data set [2] concerns HeLa cells. Briefly: Effects of endocytosis inhibitors on cell uptake, confocal microscopy. In kind it is cell-based. Conditions: 1 μM rhodamine labeled, 30 min, 37° C.; for effect of EIPA on uptake: 50 μM EIPA; for effect of dynasore on uptake: 80 μM dynasore; for effect of MβCD on uptake: 5 mM MβCD. The procedure: HeLa cells grown for 24 h in glass bottom plates were incubated with HKR buffer, or HKR buffer containing 80 μM dynasore, 50 μM N-ethyl-isopropyl-amiloride, or 5 mM methyl-β-cyclodextrin for 30 min at 37° C. prior to the addition of 1 μM rhodamine-labeled miniature protein or peptide (Tat (SEQ ID NO:67) and Arg8 (SEQ ID NO:68)). The cells were washed twice with DMEM, the nuclei labeled with Hoescht, and images acquired as described above for colocalization experiments.

Another data set has as its target cathepsin B (Homo sapiens, UniProt P07858). As to the kind of experiment: Resistance to acid proteases: cathepsin B. The format is in vitro ADME. Conditions: 50 pmol, 30 min, 37° C., pH 5. The procedure: (§1) 50 pmol aPPR, 5.2R, 5.3R, ZF5.3R, TatR (SEQ ID NO:67), or Arg8R (SEQ ID NO:68) were incubated with 5 pg cathepsin B, D, or L for 30 min at 37° C. in 10 μL of 20 mM sodium phosphate buffer (pH 5) containing 150 mM NaCl. At the end of the incubation, the reaction was stopped by adding 40 μL of a solution containing a 84:15:1 ratio of water:EtOH:TFA before analysis by HPLC.

The target in a further data set is cathepsin D (Homo sapiens, UniProt P07339). Briefly: Resistance to acid proteases: cathepsin D. The format is in vitro ADME. Conditions: 50 pmol, 30 min, 37° C., pH 5. The procedure: as §1
Sequence of cathepsin D (P07339 65-412, species assumed): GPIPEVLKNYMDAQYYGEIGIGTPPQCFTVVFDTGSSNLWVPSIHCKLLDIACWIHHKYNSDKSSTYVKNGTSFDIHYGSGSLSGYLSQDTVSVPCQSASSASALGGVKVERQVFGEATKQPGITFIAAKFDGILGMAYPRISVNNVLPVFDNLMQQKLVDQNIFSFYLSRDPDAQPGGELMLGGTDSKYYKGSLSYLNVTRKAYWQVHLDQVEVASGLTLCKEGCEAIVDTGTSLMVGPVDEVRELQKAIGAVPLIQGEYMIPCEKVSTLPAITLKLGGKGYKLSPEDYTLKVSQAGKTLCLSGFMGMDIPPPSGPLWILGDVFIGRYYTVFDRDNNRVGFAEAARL
Data set [3] concerns HeLa cells. Briefly: Colocalization with Alexa-488-transferrin (Tf488), live cell confocal microscopy. In kind it is cell-based. Conditions: 1 μM, 30 min. The procedure:
To examine the colocalization of rhodamine labeled miniature proteins or peptides with Alexa-488-transferrin (Tf488), HeLa cells were plated (200 μl, 10^4 cells/well, 96 well glass bottom plates, Matrical) the day prior to experiments. The media was replaced with 150 μL Hepes-Krebs-Ringer's (HKR) buffer (140 mM NaCl, 2 mM KCl, 1 mM CaCl2, 1 mM MgCl2, 10 mM Hepes pH 7.4) containing 1 μM miniature protein or 25 nM Alexa-488-transferrin (Molecular Probes) and the cells incubated at 37° C. for 30 min. The cells were then rinsed twice with 200 μL, HKR buffer and nuclei were labeled by overlaying 200 μL HKR containing 300 nM Hoechst 33342 (Molecular Probes Cat. # H3570) for 5 minutes. Images of cells were acquired using a PerkinElmer LiveView spinning disk confocal microscope fitted with a 60×1.2 NA objective. Colocalization with Rab-GFP fusions was examined in an analogous way using HeLa cells transfected with the appropriate expression plasmid.
Colocalization between rhodamine and fluorescein labeled miniature proteins and peptides, or between rhodamine labeled miniature proteins and markers of endocytosis was completed using confocal microscopy. Live cell confocal microscopy was conducted using a PerkinElmer LiveView spinning disk confocal microscope fitted with heated microscope enclosure (maintained at 37° C.), a 60×1.2 NA objective, laser illumination, a Nipkow CSU-1× spinning disk, and a Hammamatsu CS9100 EMCCD camera operated using Velocity software. Alexafluor-488-transferrin was detected using a 488 nm laser and a 520 nm long pass filter; tetraethylrhodamine and Alexafluor-546-transferrin were detected using a 546 nm laser line and a 580 nm long pass filter, Hoescht 33342 was detected using a 405 nm laser line and a 450 nm long pass filter. Images were processed for presentation by using the ‘subtract background’ option and linear contrast adjustments in Image J. All adjustments were applied uniformly to the entire image. Colocalization analysis was performed using the JACOP plugin (Bolte and Cordelières, 2006), available on the ImageJ website. The fraction of rhodamine signal overlapping with EGFP signal (R E G) was calculated using Mander's coefficient and automatic thresholding. Pearson's correlation coefficient (R) was also obtained using the JACOP plugin.

For another data set, the target named is cathepsin L (Homo sapiens, UniProt P07711). Briefly: Resistance to acid proteases: cathepsin L. In kind it is in vitro ADME. Conditions: 50 pmol, 30 min, 37° C., pH 5. As for the experimental part:
as §1

Data set [4] relates to HeLa cells. Briefly: Peptide degradation in HeLa cells, HPLC of whole cell lysates. The format is in vitro ADME. Conditions: 1 μM, 30 min, RIPA lysate. As for the experimental part: Approximately 200,000 HeLa cells were treated with rhodamine labeled cationic miniature proteins and peptides as described for experiments using flow cytometry to measure peptide uptake. These cells were pelleted in 96 well microtitre plates (300 g, 3 min) and lysed in 40 μL RIPA buffer (150 mM NaCl, 50 mM Tris pH 7.4, 50 mM EDTA pH 7.4, 0.1% SDS, 1% Triton X-100) on ice for 30 min. The insoluble material was cleared from the cell lysate via centrifugation (10,000 g, 10 min) and 20 μL of the supernatant was diluted into 400 μL of 15% CH3CN in water. These samples were analyzed via reverse phase HPLC (Shimadzu Instruments) fitted with a fluorescence detector and a C18 column (Poroshell 120 SB-C18, 2.7 μm, 100 mm×3 mm ID, Agilent).

The subject of data set [5] is HeLa cells. Briefly: Colocalization of rhodamine and fluorescein labeled miniature proteins and peptides. In kind it is cell-based. Conditions: 1 μM each, 30 min, 37° C. As for the experimental part:
HeLa cells were treated with a mixture of rhodamine—(indicated by the superscript R) and fluorescein—(indicated by the superscript F)—labeled miniature protein or peptide (1 μM each) for 30 min at 37° C., washed, and then imaged using confocal microscopy. […] The remaining molecules show high fluorescence, and molecules sharing the same sequence (but different labels) show high degrees of overlap, with R>0.68. The amino acid sequence of Arg8 is provided in SEQ ID NO:68.
Colocalization between rhodamine and fluorescein labeled miniature proteins and peptides, or between rhodamine labeled miniature proteins and markers of endocytosis was completed using confocal microscopy. […] Alexafluor-488-transferrin was detected using a 488 nm laser and a 520 nm long pass filter; tetraethylrhodamine and Alexafluor-546-transferrin were detected using a 546 nm laser line and a 580 nm long pass filter, Hoescht 33342 was detected using a 405 nm laser line and a 450 nm long pass filter. […] The fraction of rhodamine signal overlapping with EGFP signal (R E G) was calculated using Mander's coefficient and automatic thresholding. […]

Data set [6] is described as follows: Circular dichroism thermal melt. In kind it is physicochemical. Conditions: unlabeled, 25 μM in PBS. As for the experimental part: FIG. 8, comprising FIGS. 8A-8C, depicts the results of circular dichroism (CD) analysis of miniature proteins studied herein. (FIG. 8A) Wavelength dependent CD spectra of miniature proteins at 25 μM concentration in PBS at 37° C. (FIG. 8B) Temperature dependent ellipticity at 222 nm of miniature proteins at 25 μM.
CD spectra of unlabeled aPP-based miniature were recorded from samples containing 25 μM peptide in PBS as described (Luedtke et al., 2007, Nat Chem Biol. 3:779-784). CD spectra of ZF and ZF5.3 in the presence and absence of Zn2+ were recorded from solutions of peptide (12.5-25 μM) dissolved in 10 mM argon-purged Tris-HCL (pH 8.0) in the presence or absence of 0.5 mM dithiothreitol and 2 eq. ZnC12. Samples were incubated for 30 min at RT and analyzed on a Jasco J-810-150S spectropolarimeter. Final plots show background-normalized averages of six scans.
(In general: CD spectra are sensitive to the conformation of chiral molecules.)

The next data set relates to GR★-GFP. Briefly: GIGT, transient transfection with GR★-GFP. In kind it is cell-based. Conditions: 500 nM, 30 min, HeLa cells.

Sequence of cathepsin L (P07711 114-333, species assumed): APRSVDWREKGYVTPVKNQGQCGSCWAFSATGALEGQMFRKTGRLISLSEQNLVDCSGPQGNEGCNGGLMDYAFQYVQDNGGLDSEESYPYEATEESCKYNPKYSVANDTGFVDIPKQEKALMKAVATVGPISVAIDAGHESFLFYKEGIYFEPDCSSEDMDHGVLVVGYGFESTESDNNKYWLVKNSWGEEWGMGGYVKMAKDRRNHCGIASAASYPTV
Description for GR★-GFP: Cells were plated (10,000 cells/well) onto 96-well glass bottom plates (Matrical Bioscience, #MGB096-1-2-LG-L) in full DMEM (HeLa) or full McCoy's 5A (U205) media and allowed to adhere overnight. […] Cells were allowed to transfect for 6 h at 37° C. under 5% CO2 before removing transfection media and replenishing growth media. Image analysis of GIGT using Cell Profiler. Cell image files were loaded into a customizable CellProfiler7 ‘pipeline’ as individual GFP (green) and Hoechst (blue) channels, and converted to grayscale. Nuclei were identified and segmented from the gray Hoechst channel based on Otsu three-class thresholding, with pixels in the middle intensity class assigned to background. Clumped objects were individually distinguished using ‘Laplacian of Gaussian’ modeling and separated by ‘shape’. […] The ratio of mean intensities of the nuclear region divided by the cytosolic region of the GFP image was measured for every cell examined, and 40-80 transfected cells from 15-25 images were acquired for each treatment.
Cells were allowed to incubate in the presence of ligand for 30 min at 37° C. under 5% CO2. […] Fluorescence illumination was initiated using an EXFO X-cite Series 120 Hg arc lamp. […] Fluorescence intensities of individual cells were quantified using the image analysis algorithm CellProfiler.

`CC[C@H](C)[C@H](NC(=O)[C@H](CC(C)C)NC(=O)[C@H](CC(=O)O)NC(=O)[C@H](CCCNC(=N)N)NC(=O)[C@@H](NC(=O)[C@@H]1CCCN1C(=O)[C@H](C)NC(=O)[C@H](CC(=O)O)NC(=O)[C@H](CC(=O)O)NC(=O)CNC(=O)[C@@H]1CCCN1C(=O)[C@H](Cc1ccc(O)cc1)NC(=O)[C@@H](NC(=O)[C@@H]1CCCN1C(=O)[C@H](CCC(N)=O)NC(=O)[C@H](CO)NC(=O)[C@@H]1CCCN1C(=O)CNC(=O)[C@@H](N)CCCCNS(=O)(=O)c1ccc(-c2c3ccc(=[N+](CC)CC)cc-3oc3cc(N(CC)CC)ccc23)c(S(=O)(=O)[O-])c1)[C@@H](C)O)C(C)C)C(=O)N[C@@H](CCCNC(=N)N)C(=O)N[C@@H](Cc1ccccc1)C(=O)N[C@@H](Cc1ccc(O)cc1)C(=O)N[C@@H](CCCNC(=N)N)C(=O)N[C@@H](CC(=O)O)C(=O)N[C@@H](CC(C)C)C(=O)N[C@@H](CCCNC(=N)N)C(=O)N[C@@H](CCCNC(=N)N)C(=O)N[C@@H](Cc1ccc(O)cc1)C(=O)N[C@@H](CC(C)C)C(=O)N[C@@H](CC(N)=O)C(=O)N[C@H](C(=O)N[C@H](C(=O)N[C@H](C(=O)N[C@@H](CCCNC(=N)N)C(=O)N[C@@H](Cc1c[nH]cn1)C(=O)N[C@@H](CCCNC(=N)N)C(=O)N[C@@H](Cc1ccc(O)cc1)C(N)=O)[C@@H](C)O)C(C)C)C(C)C` [5.3R] (H-K(X1)GPSQPTYPGDDAPVRDLIRFYRDLRRYLNVVTRHRY-NH2): the “material found in SLO cytoplasmic extracts (HPLC)” value (shortened to “material found”) with HeLa cells [1] was “presence of intact 5.3R; also recorded: a single peak with the same retention time as the starting material”. For the same compound, in the data set with HeLa cells [2], the “effect of EIPA on uptake” value was “dramatically reduced the uptake”, the “effect of dynasore on uptake” value is listed as “completely blocked the uptake” and the “effect of MβCD on uptake” value was “completely blocked the uptake”. Moreover, the “degradation by cathepsin B (HPLC)” value on cathepsin B is “several additional small peaks”. Moreover, the “degradation by cathepsin D (HPLC)” value at cathepsin D is “cleaved by cathepsin D”. Besides, the metabolised at 0.5 h on cathepsin D (isolated enzyme cathepsin other, read-out: disappearance after incubation with cathepsin D) was ~50%. Further, the “intracellular red fluorescent signal” value with HeLa cells [3] is reported as “red fluorescent puncta throughout the cytosol”. Further, the “degradation by cathepsin L (HPLC)” value on cathepsin L is “traces identical to the parent peptide; also recorded: to a smaller extent”. Also, the “degradation during incubation with HeLa cells (HPLC of whole cell lysates)” value with HeLa cells [4] was “minimal to no cleavage; also recorded: virtually identical to control samples”.

With “GPSQPTYPGDDAPVEDLIRFYNDLQQYLNVVTRHRYC^FLU-NH2 (GPSQPTYPGDDAPVEDLIRFYNDLQQYLNVVTRHRYC(fluorescein)-NH2) [aPPF]”, in the data set with HeLa cells [5], the cell fluorescence entry is “low fluorescence”.

“GPSQPTYPGDDAPVRDLRRFYRDLRRYLNVVTRHRYC^acetyl-NH2 (GPSQPTYPGDDAPVRDLRRFYRDLRRYLNVVTRHRYC(Ac)-NH2) [6.3]”: the “Tm (temperature dependent ellipticity at 222 nm)” value in [6] was found to be 33 °C.

Consider “K^DexGPSQPTYPGDDAPVRDLIRPYRDLQRPLRVVTRHRY (K(dexamethasone)GPSQPTYPGDDAPVRDLIRPYRDLQRPLRVVTRHRY-NH2) [5.2-P2Dex]”, for which the “translocation ratio (TR), GR★-GFP” value in the data set with GR★-GFP is 1.35±0.11.

On to “K^DexGPSQPTYPGDDAPVRDLIRPYRDLRRPLNVVTRHRY (K(dexamethasone)GPSQPTYPGDDAPVRDLIRPYRDLRRPLNVVTRHRY-NH2) [5.3-P2Dex]”, for which the “translocation ratio (TR), GR★-GFP” value with GR★-GFP was 1.64±0.27.

For the compound “K^RhodGPSQPTYPGDDAPVEDLIRFYNDLQQYLNVVTRHRY-NH2 (K(rhodamine)GPSQPTYPGDDAPVEDLIRFYNDLQQYLNVVTRHRY-NH2; reading uncertain; also: printed as K^RhodGPSQPTYPGDDAPVEDLIRFYNDLQQYLNVVTRHRY-NH2) [aPPR]”, the “material found” value with HeLa cells [1] is “little to no fluorescent material; also recorded: little or no aPPR is observed”. For the same compound, the “intracellular red fluorescent signal” value in the data set with HeLa cells [3] was “little or no red fluorescent signal”. Moreover, the cell fluorescence result with HeLa cells [5] is “low fluorescence”.

In the case of “K^RhodGRKKRRQRRRPPQY-NH2 (K(rhodamine)GRKKRRQRRRPPQY-NH2; reading uncertain; also: printed as K^RhodGRKKRRQRRRPPQY-NH2) [TatR]”, the “material found” value in the data set on HeLa cells [1] is given as “retention times distinct from the starting material; also recorded: little or no material with the same retention time as the starting material”. In addition, in the data set on HeLa cells [2], the “effect of EIPA on uptake” value is “dramatically reduced the uptake”, the “effect of dynasore on uptake” value is “completely blocked the uptake” and the “effect of MβCD on uptake” value is recorded as “completely blocked the uptake”. Also, in the data set with cathepsin B, the “degradation by cathepsin B (HPLC)” value is “little or no degradation”. In the data set with cathepsin D, the “degradation by cathepsin D (HPLC)” value was “little or no degradation”. The “intracellular red fluorescent signal” value in the data set on HeLa cells [3] is on record as “red fluorescent puncta throughout the cytosol”. Also, the “degradation by cathepsin L (HPLC)” value in the data set with cathepsin L is “little or no degradation”. Moreover, the “degradation during incubation with HeLa cells (HPLC of whole cell lysates)” value in the data set with HeLa cells [4] is on record as “numerous additional peaks”.
